From patent publication US12404304B1, “Telomerase reverse transcriptase (TERT) expression enhancing compounds and methods for using the same” (Sierra Sciences, LLC, priority 2007, dated 2025)

Key:
[1] = system: human TERT expression (hTERT mRNA); assay: Quantitative real-time RT-PCR of hTERT mRNA expression (Ct, transcripts) in compound-treated cells; type: cell-based
How it was run: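 Read-out is cycle threshold, the cycle at which probe fluorescence released by Taq 5′-nuclease activity crosses a set level; Ct falls as hTERT mRNA rises. cDNA of treated and untreated cells was compared, with starting transcripts quantified against a known-cDNA standard curve.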

[2] = system: viable cells in culture; assay: Cell viability assay (CellTiter-Glo Luminescent Cell Viability Assay, ATP quantitation, percent of vehicle control)

SMILES	Average Number of hTERT Transcripts [1]	Average Cell Viability after 24 Hours (% DMSO) [2]
CCC(=O)Oc1cccc2ccc(/C=C/c3ccccc3Cl)nc12 [compound 1432]	19.46	86.95 % DMSO
Cc1ccc(NS(=O)(=O)c2ccc(NC(=O)C(c3ccccc3)c3ccccc3)cc2)cc1C [compound 1433]	45.43	75.77 % DMSO
CC(=O)C1=C(C)NC(SCC(=O)Nc2sc3c(c2C#N)CCCC3)=C(C#N)C1c1ccc(Cl)cc1 (stereo not drawn) [compound 1434]	25.17	72.00 % DMSO
COC(=O)CSc1nnc(-c2sc3cc(Cl)ccc3c2Cl)n1C [compound 1435]	48.10	60.23 % DMSO
O=C(Nc1ccccc1OC(F)F)C(c1ccccc1)c1ccccc1 [compound 1436]	8.14	82.48 % DMSO
COC(=O)COc1ccc(S(=O)(=O)N2CCCC2)cc1Cl [compound 1437]	22.13	79.26 % DMSO
O=C(CC(NC1CCCCC1)C(=O)O)Nc1cccc([N+](=O)[O-])c1 (stereo not drawn) [compound 1438]	8.29	97.89 % DMSO
CC(=O)c1ccc(NC(=S)Nc2ccc(Br)c(Cl)c2)cc1 [compound 1439]	11.63	51.61 % DMSO
COC(=O)c1sc(NC(=S)NCc2cccnc2)c(C(=O)OC)c1C [compound 1440]	13.85	99.11 % DMSO
CCOC(=O)N1CCN(C(=O)CCc2ccc(S(=O)(=O)NCCc3ccccc3)cc2)CC1 [compound 1441]	5.06	101.03 % DMSO
CCOc1ccc(NC(=O)Nc2cccc(C(C)=O)c2)c([N+](=O)[O-])c1 [compound 1442]	7.65	84.87 % DMSO
Cc1ccc2nc(-c3ccc(NC(=S)Nc4cccc([N+](=O)[O-])c4)cc3)sc2c1 [compound 1443]	7.82	77.16 % DMSO
CC(=O)Oc1ccc2c(=O)c(Oc3ccc4ccccc4c3)c(C(F)(F)F)oc2c1 [compound 1444]	16.54	64.02 % DMSO
CCOC(=O)C(=O)Nc1ccc(S(=O)(=O)N2CC(C)CC(C)C2)cc1 (stereo not drawn) [compound 1445]	6.33	87.20 % DMSO
CC(C)(C)C(=O)Nc1nc2c(Cl)c(Cl)ccc2s1 [compound 1446]	46.62	65.61 % DMSO
O=C(Cn1cnc2ccccc21)NCCCN1CCOCC1 [compound 1447]	5.30	96.56 % DMSO
FC(F)(F)c1cccc(NC(=S)Nc2ccc(Cc3ccncc3)cc2)c1 [compound 1449]	48.57	53.58 % DMSO
COc1cc(CNC2CCCC2)ccc1OCCO [compound 1450]	8.24	96.61 % DMSO
COc1cc(C)ccc1OC1CCNCC1 [compound 1451]	5.80	96.84 % DMSO
O=C(OCc1cc(=O)n2nc(C3CC3)sc2n1)c1ccc(NC(=O)c2ccco2)cc1 [compound 1452]	7.45	81.09 % DMSO
CC(C)(C)NC(=O)NCc1nnnn1-c1ccccc1 [compound 1453]	11.03	97.19 % DMSO
Cc1cccn2c(=O)cc(COc3ccc(NC(=O)c4cccs4)cc3)nc12 [compound 1454]	3.99	97.09 % DMSO
NNc1ncnc2sc3c(c12)CCCC3 [compound 1455]	130.06	84.96 % DMSO
Nc1c2ccccc2nc2ccccc12 [compound 1456]	92.07	57.96 % DMSO
O=C(CCc1ccccc1)NC(c1cccc([N+](=O)[O-])c1)c1c(O)ccc2ccccc12 (stereo not drawn) [compound 1458]	10.26	62.79 % DMSO
COC(=O)c1ccc(Cl)c2c1C1C=CCC1C(c1cccc(F)c1)N2 (stereo not drawn) [compound 1459]	11.14	72.75 % DMSO
Cc1cc(C)c2c3c1C1C=CCC1CN3C(C(=O)O)C1CC=CC21 (stereo not drawn) [compound 1460]	46.47	89.11 % DMSO

SMILES	Average Number of hTERT Transcripts [1]	Average Cell Viability after 24 Hours (% DMSO) [2]
CC(=O)Oc1ccc(C2Nc3ccc4ccccc4c3C3C=CCC32)c(OC(C)=O)c1 (stereo not drawn) [compound 1461]	29.65	55.44 % DMSO
CC1=NN(c2ccc(C)c(C)c2)C(=O)/C1=C\NNC(=O)c1ccccc1 [compound 1464]	18.97	67.60 % DMSO
CC1=NN(c2ccccc2)C(=O)/C1=C\NNC(=O)c1ccccc1 [compound 1465]	20.29	80.62 % DMSO
Cc1cc(=O)c2c(=O)n(-c3nc4ccccc4s3)[nH]c2[nH]1 [compound 1466]	97.31	75.47 % DMSO
O=C(O)CCc1ccc(-c2ccc(Cl)cc2)o1 [compound 1467]	108.02	79.50 % DMSO
CC[C@@]1(C2O[C@@H](C3O[C@@](O)(CC)[C@H](C)C[C@@H]3C)C[C@@H]2C)CC[C@H]([C@]2(C)CCC3(C[C@H](O)[C@@H](C)[C@@H]([C@H](C)[C@@H](OC)[C@H](C)C(=O)O)O3)O2)O1 (stereo partly drawn) [compound 1469]	59.72	60.18 % DMSO
O=C(c1cnn2c(C(F)(F)F)cc(-c3ccco3)nc12)N1CCCCC1 [compound 1471]	148.88	90.01 % DMSO
CC(/C=C/C(=O)NO)=C\C(C)C(=O)c1ccc(N(C)C)cc1 (stereo not drawn) [compound 1472]	76.60	82.14 % DMSO
CC(/C=C/c1ccc(N(C)C)cc1)=N\NC(=N)SC1CC(=O)N(c2ccc(Cl)cc2)C1=O (stereo not drawn) [compound 1473]	32.72	69.29 % DMSO
c1ccc(-n2ncc3c2-c2[nH]c4ccccc4c2CC3)cc1 [compound 1474]	17.37	80.47 % DMSO
Clc1ccc(OCc2nn3c(Cc4ccccc4)nnc3s2)c(Cl)c1 [compound 1475]	17.56	67.26 % DMSO
c1ccc(-c2nc3cc(Oc4ccc5[nH]c(-c6ccccn6)nc5c4)ccc3[nH]2)nc1 [compound 1476]	25.18	86.51 % DMSO
Cc1ccc(OCC(=O)N/N=C/c2c(C)nn(-c3ccccc3)c2O)c(C)c1 [compound 1483]	5.19	81.33 % DMSO
CCCC1=NN(c2ccc(C(=O)OCC)cc2)C(=O)C1 [compound 1484]	16.52	62.51 % DMSO
Cc1cc(OCC(=O)N/N=C/c2c(C)nn(-c3ccccc3)c2O)ccc1Cl [compound 1485]	48.25	112.70 % DMSO
CCCc1cc(=O)n2ncc(-c3cccc(Br)c3)c2[nH]1 [compound 1486]	51.80	73.20 % DMSO
Cc1ccc(-c2cc(C(=O)NCCc3ccc(S(N)(=O)=O)cc3)no2)cc1 [compound 1487]	1.93	95.31 % DMSO
O=C(CSc1nnc(-c2ccncc2)o1)N1CCN(c2ccccc2F)CC1 [compound 1488]	3.19	86.72 % DMSO
NCc1ccc(CNC(=O)c2cc(-c3cccs3)on2)cc1 [compound 1489]	3.77	107.24 % DMSO
O=C(O)CCC(=O)Nc1nc(-c2ccccn2)cs1 [compound 1490]	3.91	111.59 % DMSO
O=C(NCCSCc1ccccc1)c1cc(-c2cccs2)on1 [compound 1491]	5.09	102.96 % DMSO
O=C(CNC(=O)c1cc(-c2cccs2)on1)c1ccccc1 [compound 1492]	6.45	91.36 % DMSO
O=C(CSc1nnc(-c2ccncc2)o1)NCc1ccccc1Br [compound 1493]	6.84	100.09 % DMSO
COc1ccc(CCNC(=O)c2cc(-c3cccs3)on2)cc1 [compound 1494]	9.18	110.08 % DMSO
Cc1ccc(-c2cc(C(=O)Nc3nc4ccc(S(C)(=O)=O)cc4s3)no2)cc1 [compound 1495]	10.81	85.84 % DMSO
O=C(Nc1nc(-c2ccccn2)cs1)c1ccc(-c2nc3ccccc3s2)s1 [compound 1496]	11.43	12.76 % DMSO
COc1cccc(CCNC(=O)c2cc(-c3cccs3)on2)c1 [compound 1497]	14.74	92.73 % DMSO
